Experimental findings from patent US10053451B2, “Heterocyclic estrogen receptor modulators and uses thereof” (priority 2015, dated 2018) are described below.

Structures are written as SMILES.

The experiment concerns the target T1, estrogen receptor alpha (ESR1) (Homo sapiens, UniProt P03372).
T1 construct: MCF7 cells were trypsinized and washed twice; endogenous in cells; host or cells: MCF7 breast cancer cells
T1 sequence (P03372 1-595): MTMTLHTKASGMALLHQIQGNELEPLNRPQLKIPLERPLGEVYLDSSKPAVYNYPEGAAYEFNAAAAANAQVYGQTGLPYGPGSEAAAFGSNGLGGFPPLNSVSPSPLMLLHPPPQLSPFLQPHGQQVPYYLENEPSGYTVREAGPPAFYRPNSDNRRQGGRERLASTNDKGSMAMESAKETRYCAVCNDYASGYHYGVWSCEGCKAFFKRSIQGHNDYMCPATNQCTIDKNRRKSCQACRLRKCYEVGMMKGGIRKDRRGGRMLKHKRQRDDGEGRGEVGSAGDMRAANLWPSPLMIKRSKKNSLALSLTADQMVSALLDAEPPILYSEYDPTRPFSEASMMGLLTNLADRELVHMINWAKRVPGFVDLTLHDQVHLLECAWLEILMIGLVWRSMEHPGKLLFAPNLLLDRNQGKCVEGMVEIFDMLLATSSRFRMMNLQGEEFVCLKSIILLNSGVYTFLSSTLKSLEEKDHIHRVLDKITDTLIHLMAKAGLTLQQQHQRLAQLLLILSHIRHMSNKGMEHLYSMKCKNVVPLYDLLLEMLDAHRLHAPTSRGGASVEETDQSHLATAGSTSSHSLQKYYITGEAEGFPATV
Description: Breast Cancer Cell ERa High Content Fluorescence Imaging Assay (ER-alpha MCF7 Assay). The format is cell-based. The note with it: MCF7 cells, 4 hours; plateau of maximal effect; DMSO = 0%, 5 nM Fulvestrant = 100% change in ESR1. On the procedure: Cell plates were incubated at 37° C., for 4 hours. Fixation and permeabilization were carried out using a Biotek EL406 plate washer and dispenser as follows. […] Samples were incubated 30 minutes. Well contents was aspirated and 50 uL/well of Phosphate Buffered Saline (PBS) containing 0.5% w/v bovine serum albumen, 0.5% v/v Triton X-100 (Antibody Dilution Buffer) was added to each well. Samples were incubated for 30 minutes. Well contents were aspirated and washed 3 times with 100 uL/well of PBS. Immunofluorescence staining of estrogen receptor alpha (ESR1) was carried out using a Biotek EL406 plate washer and dispenser as follows. […] Samples were incubated for 2 hours at room temperature. Samples were washed 4 times with 100 uL/well of PBS. […] Samples were incubated for 2 hours at room temperature. Samples were washed 3 times with 100 uL/well of PBS using a Biotek EL406. Quantitative fluorescence imaging of ESR1 was carried out using a Cellomics Arrayscan V (Thermo). […] Channel 1 (DNA stain) was used to define the nuclear region (Circ). […] The “Robust Fit” method was used to define the inflexion point of curve (EC50) and the plateau of the maximal effect (Sinf).
`CC1=C(c2cncc(C#N)c2)C(c2ccc(OCCN3CC(CF)C3)cc2)Oc2ccc(O)cc21` (centres unmarked) [Example 44, 5-(2-{4-[2-(3-Fluoromethyl-azetidin-1-yl)-ethoxy]-phenyl}-6-hydroxy-4-methyl-2H-chromen-3-yl)-nicotinonitrile]: the “ER-alpha MCF7 Sinf (%)” value is 91.8%. To `CNC(=O)N1CCC(C2=C(C)c3cc(O)ccc3OC2c2ccc(OCCN3CC(CF)C3)cc2)CC1` (centres unmarked) [Example 31, 4-(2-(4-(2-(3-(fluoromethyl)azetidin-1-yl)ethoxy)phenyl)-6-hydroxy-4-methyl-2H-chromen-3-yl)-N-methylpiperidine-1-carboxamide] belongs 85.9%. The value for `CC1=C(C2=CCNC2)C(c2ccc(OCCN3CC(CF)C3)cc2)Oc2ccc(O)cc21` (centres unmarked) [Example 18, 3-(2,5-dihydro-1H-pyrrol-3-yl)-2-(4-(2-(3-(fluoromethyl)azetidin-1-yl)ethoxy)phenyl)-4-methyl-2H-chromen-6-ol] was 90.0%. To `CC1=C(c2cnn(C)c2)C(c2ccc(OCCN3CC(CF)C3)cc2)Oc2ccc(O)cc21` (centres unmarked) [Example 42, 2-{4-[2-(3-Fluoromethyl-azetidin-1-yl)-ethoxy]-phenyl}-4-methyl-3-(1-methyl-1H-pyrazol-4-yl)-2H-chromen-6-ol] belongs 95.2%; to `CC1=C(c2cccnc2C)C(c2ccc(OCCN3CC(CF)C3)cc2)Oc2ccc(O)cc21` (centres unmarked) [Example 35, 2-{4-[2-(3-Fluoromethyl-azetidin-1-yl)-ethoxy]-phenyl}-4-methyl-3-(2-methyl-pyridin-3-yl)-2H-chromen-6-ol], 98.5%; to `CC1=C(c2ncc(C#N)cc2C)C(c2ccc(OCCN3CC(CF)C3)cc2)Oc2ccc(O)cc21` (centres unmarked) [Example 22, 2-{4-[2-(3-Fluoromethyl-azetidin-1-yl)-ethoxy]-phenyl}-4-methyl-3-(3-methyl-5-cyano-pyridin-2-yl)-2H-chromen-6-ol], 97.4%.

As to `CC1=C(C2=CCC(O)CC2)C(c2ccc(OCCN3CC(CF)C3)cc2)Oc2ccc(O)cc21` (centres unmarked) [Example 21, 2-(4-(2-(3-(Fluoromethyl)azetidin-1-yl)ethoxy)phenyl)-3-(4-hydroxycyclohex-1-en-1-yl)-4-methyl-2H-chromen-6-ol], the “ER-alpha MCF7 Sinf (%)” value turned out to be 98.7%. To `CC1=C(c2cncc(S(C)(=O)=O)c2)C(c2ccc(OCCN3CC(CF)C3)cc2)Oc2ccc(O)cc21` (centres unmarked) [Example 41, 2-{4-[2-(3-Fluoromethyl-azetidin-1-yl)-ethoxy]-phenyl}-3-(5-methanesulfonyl-pyridin-3-yl)-4-methyl-2H-chromen-6-ol] belongs 98.9%; to `CC(=O)N1CC=C(C2=C(C)c3cc(O)ccc3OC2c2ccc(OCCN3CC(CF)C3)cc2)C1` (centres unmarked) [Example 20, 1-(3-(2-(4-(2-(3-(Fluoromethyl)azetidin-1-yl)ethoxy)phenyl)-6-hydroxy-4-methyl-2H-chromen-3-yl)-2,5-dihydro-1H-pyrrol-1-yl)ethanone], 93.7%; to `CC1=C(C2=CCC(F)(F)CC2)C(c2ccc(OCCN3CC(CF)C3)cc2)Oc2ccc(O)cc21` (centres unmarked) [Example 26, 3-(4,4-difluorocyclohex-1-en-1-yl)-2-(4-(2-(3-(fluoromethyl)azetidin-1-yl)ethoxy)phenyl)-4-methyl-2H-chromen-6-ol], 97.1%.

Consider `CC1=C(c2cccc(O)c2)[C@H](c2cnn(CCCN3CC(CF)C3)c2)Oc2ccc(O)cc21` [Example 51, (R)-2-(1-(3-(3-(fluoromethyl)azetidin-1-yl)propyl)-1H-pyrazol-4-yl)-3-(3-hydroxyphenyl)-4-methyl-2H-chromen-6-ol], for which the “ER-alpha MCF7 Sinf (%)” value is listed as 94.7%. The value for `CC1=C(C2CCC(O)C2)C(c2ccc(OCCN3CC(CF)C3)cc2)Oc2ccc(O)cc21` (centres unmarked) [Example 46, 2-[4-[2-[3-(fluoromethyl)azetidin-1-yl]ethoxy]phenyl]-3-(3-hydroxycyclopentyl)-4-methyl-2H-chromen-6-ol] was 98.3%; that for `CC1=C(c2cncnc2)C(c2ccc(OCCN3CC(CF)C3)cc2)Oc2ccc(O)cc21` (centres unmarked) [Example 38, 2-{4-[2-(3-Fluoromethyl-azetidin-1-yl)-ethoxy]-phenyl}-4-methyl-3-pyrimidin-5-yl-2H-chromen-6-ol] was 90.3%. To `CC1=C(c2cncc(F)c2)C(c2ccc(OCCN3CC(CF)C3)cc2)Oc2ccc(O)cc21` (centres unmarked) [Example 43, 2-{4-[2-(3-Fluoromethyl-azetidin-1-yl)-ethoxy]-phenyl}-3-(5-fluoro-pyridin-3-yl)-4-methyl-2H-chromen-6-ol] belongs 97.3%; to `CC1=C(/C=C/CO)C(c2ccc(OCCN3CC(CF)C3)cc2)Oc2ccc(O)cc21` (centres unmarked) [Example 52, 2-[4-[2-[3-(fluoromethyl)azetidin-1-yl]ethoxy]phenyl]-3-[(E)-3-hydroxyprop-1-enyl]-4-methyl-2H-chromen-6-ol], 97.3%; to `CC1=C(c2ccncc2C)C(c2ccc(OCCN3CC(CF)C3)cc2)Oc2ccc(O)cc21` (centres unmarked) [Example 32, 2-{4-[2-(3-Fluoromethyl-azetidin-1-yl)-ethoxy]-phenyl}-4-methyl-3-(3-methyl-pyridin-4-yl)-2H-chromen-6-ol], 99.4%. The value for `CC1=C(c2cncc(C)c2)C(c2ccc(OCCN3CC(CF)C3)cc2)Oc2ccc(O)cc21` (centres unmarked) [Example 37, 2-{4-[2-(3-Fluoromethyl-azetidin-1-yl)-ethoxy]-phenyl}-4-methyl-3-(5-methyl-pyridin-3-yl)-2H-chromen-6-ol] was 99.2%; that for `CC1=C(c2ncccc2C)C(c2ccc(OCCN3CC(CF)C3)cc2)Oc2ccc(O)cc21` (centres unmarked) [Example 33, 2-{4-[2-(3-Fluoromethyl-azetidin-1-yl)-ethoxy]-phenyl}-4-methyl-3-(3-methyl-pyridin-2-yl)-2H-chromen-6-ol] was 96.4%. Regarding `CC(C)=CC1=C(C)c2cc(O)ccc2OC1c1ccc(OCCN2CC(CF)C2)cc1` (centres unmarked) [Example 16, 2-[4-[2-[3-(Fluoromethyl)azetidin-1-yl]ethoxy]phenyl]-4-methyl-3-(2-methylprop-1-enyl)-2H-chromen-6-ol], the “ER-alpha MCF7 Sinf (%)” value was determined as 93.9%.

Consider `CC1=C(C2CCOCC2)C(c2ccc(OCCN3CC(CF)C3)cc2)Oc2ccc(O)cc21` (centres unmarked) [Example 24, 2-(4-(2-(3-(fluoromethyl)azetidin-1-yl)ethoxy)phenyl)-4-methyl-3-(tetrahydro-2H-pyran-4-yl)-2H-chromen-6-ol], for which the “ER-alpha MCF7 Sinf (%)” value is on record as 97.7%. To `CC1=C(C2CCOC2)C(c2ccc(OCCN3CC(CF)C3)cc2)Oc2ccc(O)cc21` (centres unmarked) [Example 29, 2-(4-(2-(3-(fluoromethyl)azetidin-1-yl)ethoxy)phenyl)-4-methyl-3-(tetrahydrofuran-3-yl)-2H-chromen-6-ol] belongs 98.9%.

As to `CC1=C(C2=CCOC2)C(c2ccc(OCCN3CC(CF)C3)cc2)Oc2ccc(O)cc21` (centres unmarked) [Example 30, 3-(2,5-dihydrofuran-3-yl)-2-(4-(2-(3-(fluoromethyl)azetidin-1-yl)ethoxy)phenyl)-4-methyl-2H-chromen-6-ol], the “ER-alpha MCF7 Sinf (%)” value is recorded as 97.9%. The value for `CC1=C(CC(C)C)C(c2ccc(OCCN3CC(CF)C3)cc2)Oc2ccc(O)cc21` (centres unmarked) [Example 17, 2-(4-(2-(3-(Fluoromethyl)azetidin-1-yl)ethoxy)phenyl)-3-isobutyl-4-methyl-2H-chromen-6-ol] was 93.9%. In the case of `CC(=O)N1CCC(C2=C(C)c3cc(O)ccc3OC2c2ccc(OCCN3CC(CF)C3)cc2)C1` (centres unmarked) [Example 19, 1-(3-(2-(4-(2-(3-(Fluoromethyl)azetidin-1-yl)ethoxy)phenyl)-6-hydroxy-4-methyl-2H-chromen-3-yl)pyrrolidin-1-yl)ethanone], the “ER-alpha MCF7 Sinf (%)” value stood at 80%.

In the case of `CC1=C(C2=CC(O)CC2)C(c2ccc(OCCN3CC(CF)C3)cc2)Oc2ccc(O)cc21` (centres unmarked) [Example 47, 2-[4-[2-[3-(fluoromethyl)azetidin-1-yl]ethoxy]phenyl]-3-(3-hydroxycyclopenten-1-yl)-4-methyl-2H-chromen-6-ol], the “ER-alpha MCF7 Sinf (%)” value is recorded as 95.4%. Turning to `CC1=C(c2cnccc2C)C(c2ccc(OCCN3CC(CF)C3)cc2)Oc2ccc(O)cc21` (centres unmarked) [Example 34, 2-{4-[2-(3-Fluoromethyl-azetidin-1-yl)-ethoxy]-phenyl}-4-methyl-3-(4-methyl-pyridin-3-yl)-2H-chromen-6-ol], the “ER-alpha MCF7 Sinf (%)” value stood at 97.5%.
